Reference: US20260232670A1, “TYRO3 SELECTIVE INHIBITORS AND USES THEREOF” (THE UNIVERSITY OF NORTH CAROLINA AT CHAPEL HILL, priority 2023, published 2026)

Tests used:
MERTK = molecular target: T1, MERTK (Homo sapiens, UniProt Q12866); assay: Microfluidic capillary electrophoresis (MCE) kinase activity assay, Mer; format: biochemical
T1 sequence (Q12866 21-999): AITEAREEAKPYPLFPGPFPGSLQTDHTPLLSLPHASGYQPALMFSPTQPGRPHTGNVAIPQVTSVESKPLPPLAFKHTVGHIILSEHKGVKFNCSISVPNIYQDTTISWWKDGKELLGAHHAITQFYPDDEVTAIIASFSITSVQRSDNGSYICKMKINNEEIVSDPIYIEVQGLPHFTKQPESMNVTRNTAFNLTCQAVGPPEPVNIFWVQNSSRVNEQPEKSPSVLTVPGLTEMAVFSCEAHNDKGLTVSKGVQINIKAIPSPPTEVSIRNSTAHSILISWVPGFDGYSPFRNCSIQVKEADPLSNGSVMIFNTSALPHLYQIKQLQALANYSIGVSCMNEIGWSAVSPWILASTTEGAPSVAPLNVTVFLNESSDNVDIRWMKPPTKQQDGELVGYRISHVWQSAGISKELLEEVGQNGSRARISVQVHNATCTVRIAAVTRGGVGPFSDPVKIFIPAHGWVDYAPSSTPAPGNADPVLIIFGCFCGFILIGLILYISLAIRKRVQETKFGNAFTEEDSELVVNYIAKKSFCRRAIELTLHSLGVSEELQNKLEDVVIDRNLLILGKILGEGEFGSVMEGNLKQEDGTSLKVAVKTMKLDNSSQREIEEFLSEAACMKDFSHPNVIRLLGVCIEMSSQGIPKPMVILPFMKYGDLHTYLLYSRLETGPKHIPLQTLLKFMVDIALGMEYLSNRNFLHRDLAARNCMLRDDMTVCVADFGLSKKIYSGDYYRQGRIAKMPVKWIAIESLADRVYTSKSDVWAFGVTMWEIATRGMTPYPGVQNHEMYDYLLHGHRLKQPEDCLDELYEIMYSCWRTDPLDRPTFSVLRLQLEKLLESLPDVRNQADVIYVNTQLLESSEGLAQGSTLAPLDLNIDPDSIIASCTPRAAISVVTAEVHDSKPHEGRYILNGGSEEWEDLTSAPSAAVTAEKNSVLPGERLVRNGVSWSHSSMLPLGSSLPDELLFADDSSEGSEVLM
Method: (§1) All reactions were terminated by addition of 20 μL of 70 mM EDTA. After a 180 min incubation, phosphorylated and unphosphorylated substrate peptides (Table 6) were separated in buffer supplemented with 1× CR-8 on a LabChip EZ Reader equipped with a 12-sipper chip. Data were analyzed using EZ Reader software.

AXL = molecular target: T2, AXL (Homo sapiens, UniProt P30530); assay: Microfluidic capillary electrophoresis (MCE) kinase activity assay, Axl; format: biochemical
T2 sequence (P30530 26-894): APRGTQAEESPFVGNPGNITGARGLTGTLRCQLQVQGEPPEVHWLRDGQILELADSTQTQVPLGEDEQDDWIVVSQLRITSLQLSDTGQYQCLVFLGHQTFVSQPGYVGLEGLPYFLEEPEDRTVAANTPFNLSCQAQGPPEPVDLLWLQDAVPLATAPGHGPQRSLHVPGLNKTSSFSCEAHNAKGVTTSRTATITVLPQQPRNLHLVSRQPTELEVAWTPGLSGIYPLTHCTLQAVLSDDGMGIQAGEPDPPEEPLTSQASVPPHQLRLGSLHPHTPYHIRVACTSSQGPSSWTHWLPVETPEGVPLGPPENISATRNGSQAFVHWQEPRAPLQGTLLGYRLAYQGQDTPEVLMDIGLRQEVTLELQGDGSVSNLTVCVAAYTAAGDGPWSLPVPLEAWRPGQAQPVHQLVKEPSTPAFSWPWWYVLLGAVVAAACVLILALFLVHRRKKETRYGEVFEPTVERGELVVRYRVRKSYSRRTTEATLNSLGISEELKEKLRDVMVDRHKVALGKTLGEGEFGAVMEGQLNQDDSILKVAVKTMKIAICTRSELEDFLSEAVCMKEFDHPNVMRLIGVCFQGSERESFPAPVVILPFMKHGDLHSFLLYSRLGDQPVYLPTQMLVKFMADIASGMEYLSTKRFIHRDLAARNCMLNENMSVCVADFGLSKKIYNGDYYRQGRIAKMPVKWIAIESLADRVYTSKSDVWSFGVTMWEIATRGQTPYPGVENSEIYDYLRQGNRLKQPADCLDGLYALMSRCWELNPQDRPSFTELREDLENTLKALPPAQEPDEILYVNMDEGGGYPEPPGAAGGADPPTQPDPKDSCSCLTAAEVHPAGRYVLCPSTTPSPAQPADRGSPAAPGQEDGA
Method: as §1

TYRO3 = molecular target: T3, TYRO3 (Homo sapiens, UniProt Q06418); assay: Microfluidic capillary electrophoresis (MCE) kinase activity assay, Tyro3; format: biochemical
T3 sequence (Q06418 41-890): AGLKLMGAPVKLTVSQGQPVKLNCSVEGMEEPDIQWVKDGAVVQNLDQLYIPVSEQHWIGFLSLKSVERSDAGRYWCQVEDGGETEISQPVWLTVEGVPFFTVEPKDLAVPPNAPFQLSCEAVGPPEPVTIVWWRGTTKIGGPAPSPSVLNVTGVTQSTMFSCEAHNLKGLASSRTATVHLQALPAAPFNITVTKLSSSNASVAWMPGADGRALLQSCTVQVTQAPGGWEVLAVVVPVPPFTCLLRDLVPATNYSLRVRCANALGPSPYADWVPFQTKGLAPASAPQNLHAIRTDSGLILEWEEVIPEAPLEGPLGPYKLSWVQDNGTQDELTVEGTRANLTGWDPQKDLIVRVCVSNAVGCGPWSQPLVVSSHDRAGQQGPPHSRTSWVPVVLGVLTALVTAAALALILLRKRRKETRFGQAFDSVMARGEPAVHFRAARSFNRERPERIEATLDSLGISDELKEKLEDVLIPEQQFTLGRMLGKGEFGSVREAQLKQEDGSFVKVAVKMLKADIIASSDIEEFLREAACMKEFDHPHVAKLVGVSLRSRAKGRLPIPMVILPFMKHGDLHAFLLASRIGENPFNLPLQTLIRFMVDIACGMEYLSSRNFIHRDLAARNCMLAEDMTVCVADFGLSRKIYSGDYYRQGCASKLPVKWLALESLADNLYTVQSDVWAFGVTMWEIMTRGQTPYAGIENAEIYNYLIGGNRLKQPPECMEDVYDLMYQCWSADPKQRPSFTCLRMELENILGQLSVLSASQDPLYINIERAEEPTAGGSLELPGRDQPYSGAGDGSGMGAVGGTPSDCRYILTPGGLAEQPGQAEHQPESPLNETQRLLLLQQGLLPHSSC
Method: as §1

[1] = cited from earlier work

SMILES	IC50 (MERTK; Table 2, MCE assay, ATP at Km) [nM]	IC50 (AXL; Table 2, MCE assay, ATP at Km) [nM]	IC50 (TYRO3; Table 2, MCE assay, ATP at Km) [nM]	further results
CC(C)(C)OC(=O)N1CCN(Cc2ccc(-c3cn([C@H]4CC[C@H](O)CC4)c4nc(Nc5cc(F)cc(Cl)c5)ncc34)cc2)CC1 [Compound 28]	100 to 1000	100 to 1000	< 10	–
O[C@H]1CC[C@H](n2cc(-c3ccc(CN4CCNCC4)cc3)c3cnc(Nc4cc(F)cc(Cl)c4)nc32)CC1 [Compound 29]	< 10	10 to 100	< 10	–
CCN1CCN(Cc2ccc(-c3cn([C@H]4CC[C@H](O)CC4)c4nc(Nc5cc(F)cc(Cl)c5)ncc34)cc2)CC1 [Compound 30]	< 10	10 to 100	< 10	–
O[C@H]1CC[C@H](n2cc(-c3ccc(CN4CCN(C5CCCC5)CC4)cc3)c3cnc(Nc4cc(F)cc(Cl)c4)nc32)CC1 [Compound 31]	< 10	10 to 100	< 10	–
CN1CCC(Oc2ccc(-c3cn([C@H]4CC[C@H](O)CC4)c4nc(Nc5cc(F)cc(Cl)c5)ncc34)cc2)CC1 [Compound 37]	< 10	10 to 100	< 10	–
CN1CCN(Cc2ccc(-c3cn([C@H]4CC[C@@H](O)CC4)c4nc(Nc5cc(F)cc(Cl)c5)ncc34)cc2)CC1 [Compound 39]	–	–	–	IC50 (MERTK; Table 3, MCE assay, ATP at Km): < 10 nM; IC50 (AXL; Table 3, MCE assay, ATP at Km): 10 to 100 nM; IC50 (TYRO3; Table 3, MCE assay, ATP at Km): < 10 nM
CN1CCC(Oc2ccc(-c3cn([C@H]4CC[C@H](O)CC4)c4nc(Nc5cc(F)cc(Cl)c5)ncc34)cc2)CC1 [Compound 60]	–	–	–	IC50 (MERTK; Table 7): < 10 nM; IC50 (AXL; Table 7): 10 to 100 nM; IC50 (TYRO3; Table 7): < 10 nM
CN1CCN(Cc2ccc(-c3cn([C@H]4CC[C@H](O)CC4)c4nc(Nc5cccnc5)ncc34)cc2)CC1 [Compound 64]	< 10	< 10	< 10	–
CN1CCN(Cc2ccc(-c3cn([C@H]4CC[C@H](O)CC4)c4nc(Nc5cncnc5)ncc34)cc2)CC1 [Compound 66]	< 10	< 10	< 10	–
CN1CCC(Oc2ccc(-c3cn([C@H]4CC[C@H](O)CC4)c4nc(Nc5cc(C(F)(F)F)cc(C(F)(F)F)c5)ncc34)cc2)CC1 [Compound 150, trans-4-(2-((3,5-bis(trifluoromethyl)phenyl)amino)-5-(4-((1-methylpiperidin-4-yl)oxy)phenyl)-7H-pyrrolo[2,3-d]pyrimidin-7-yl)cyclohexan-1-ol]	–	–	–	IC50 (MERTK; Table 7): 1000 to 30000 nM; IC50 (AXL; Table 7): 1000 to 30000 nM; IC50 (TYRO3; Table 7): 10 to 100 nM
CN1CCN(C(=O)c2ccc(-c3cn([C@H]4CC[C@H](O)CC4)c4nc(Nc5cc(F)cc(Cl)c5)ncc34)cc2)CC1 [Compound 156]	–	–	–	IC50 (MERTK; Table 9): < 10 nM; IC50 (AXL; Table 9): 10 to 100 nM; IC50 (TYRO3; Table 9): < 10 nM
CC(=O)Oc1ccccc1C(=O)O [aspirin]	–	–	–	baseline major bleeding risk (gastrointestinal or intracranial) ([1]; in vivo): 1-4%
COC(=O)[C@H](c1ccccc1Cl)N1CCc2sccc2C1 [clopidogrel]	–	–	–	further increase of major bleeding risk on addition as a combination therapy ([1]; added to aspirin): 1%
